This note sets out measurements from US12312599B2, “Methods, compositions, and kits for producing beige adipocytes and treating metabolic disorders” (MaineHealth, priority 2018, dated 2025).

Each structure is given as a SMILES string.

Assay [1] concerns FD-MSCs. In words: Beige adipogenic precursor markers in FD-MSCs (flow cytometry, immunostaining, qPCR). The format is cell-based, human. Conditions: SB pretreatment 2 days. The procedure:
(§1) All assays were performed between 7 and 15 passages. For osteocyte differentiation, mature MSCs were grown in 24 well culture plates to 100% confluency in MesenCult-ACF and induced to differentiate in OsteoLife Complete Osteogenesis Medium (Lifeline Cell Technology) for 21 days prior to staining with Lifeline Alizarin Red Stain to visualize calcium deposition. For chondrocyte differentiation. For beige adipogenic precursor generation, cells were grown in 24 well culture plates to 90% confluence and treated with 5 uM SB413542 (Sigma) and 10 nM human IL-4 (Peprotech) for 2 days. For beige adipogenic induction, adipogenic precursors are differentiated for 3 days with adipogenic medium consisting of T3 (2 nM), insulin (170 nM), rosiglitazone (1 μM), SB413542 (5 uM), IBMX (0.5 mM), dexamethasone (5 μM) and indomethacin (125 μM) in EGM-2 medium (Lonza) supplemented with the BulletKit minus FGF2 (modified from^33). Thereafter, cells are maintained in adipogenic medium without IBMX, dexamethasone and indomethacin. The medium was changed every 3 days and adipocytes were fully differentiated by 9-12 days as determined by lipid accumulation and peak expression of UCP1.
Cell Isolation, Expansion and Differentiation of Interscapular Brown Adipose Tissue Preadipocytes • 1. Prior to adipose cell isolation, warm DMEM, FBS and cell wash buffer to room temperature. • 2. In a laminar flow cabinet for cell culture, place 5 g of adipose tissue on a 100×20 mm dish. Suspend tissue in 1 mL of Adipose Tissue Dissociation Kit enzyme digest cocktail and finely mince with a razorblade. • 3. Transfer cell suspension slurry to a 5 mL polystyrene round bottom tube and add an additional 1.5 mL of enzyme digest cocktail to tube. • 4. Incubate tube at 37° C. on a rotating nutator for 30 minutes. During incubation period, briefly vortex sample for 5 s in 10-minute intervals. • 5. Transfer cells to a 15 mL tube and add 5 mL of DMEM. Filter cell suspension through a 100 μm strainer into a new 15 mL tube and centrifuge at 300 g for 5 minutes to form a pellet. • 6. Remove supernatant and leave behind […] of DMEM. […]
On the technique in general: Flow cytometry measures light scatter and fluorescence of single cells or particles in a stream.

Assay [2] has as its system FD-MSCs. In words: PLIN and PPARγ2 immunostaining of differentiated FD-MSC cultures. The format is cell-based, human. Conditions: SB-treated cultures. The protocol:
as §1
Cell Isolation, Expansion and Differentiation of Interscapular Brown Adipose Tissue Preadipocytes • 1. Prior to adipose cell isolation, warm DMEM, FBS and cell wash buffer to room temperature. • 2. […]

Regarding `NC(=O)c1ccc(-c2nc(-c3ccc4c(c3)OCO4)c(-c3ccccn3)[nH]2)cc1` [SB, SB431542], in the assay on FD-MSCs [1], the “cell surface expression of PDGFRα and MSCA1” value was “increased”; the “nuclear accumulation of EBF2” value was “significantly increased”. In the assay on FD-MSCs [2], the “cells in culture that are mature adipocytes (PLIN and PPARγ2 staining)” value is listed as 87%-88%.
